Measurements published in publication PMC6013247, “Preclinical characterization of INCB053914, a novel pan-PIM kinase inhibitor, alone and in combination with anticancer agents, in models of hematologic malignancies” (PLoS ONE, 2018).

Key:
[1] = biological target: PIM2 (Homo sapiens, UniProt Q9P1W9); assay: PIM2 time-resolved fluorescence resonance energy transfer assay; assay type: biochemical; conditions: 1 mM ATP; read-out: Mean (SD) IC50
Procedure: The activity of INCB053914 against the PIM1 and PIM3 kinases was measured using AlphaScreen® assays (PerkinElmer, Inc., Shelton, Connecticut), and against PIM2 kinase using a time-resolved fluorescence resonance energy transfer assay (see Supporting Information, S1 File)
Time-resolved fluorescence resonance energy transfer assay. Reactions (20 μl) were carried out in white 384-well polystyrene plates dotted with 0.8 μl of the compound in dimethylsulfoxide in the assay buffer (50 mM Tris, pH 7.5, 0.01% Tween-20, 5 mM MgCl2, 0.01% BSA, 5 mM dithiothreitol) containing 0.05 μM fluorescein-labeled CREBtide peptide substrate (Invitrogen), 1 mM ATP, and 1 nM PIM2 (Invitrogen). After 2 hours at 25°C, reactions were stopped with 10 μl RT-FRET dilution buffer (Invitrogen) supplemented with 30 mM EDTA and 1.5 nM LanthaScreen Tb-CREB pSer133 antibody (Invitrogen). After a 30-minute incubation at room temperature, plates were read on a PHERAstar FS plate reader (BMG Labtech).

[2] = biological target: AURKA (Homo sapiens, UniProt O14965); assay: Kinase selectivity panel; assay type: biochemical; conditions: [ATP] = 1 mM
[3] = biological target: AXL (Homo sapiens, UniProt P30530); assay: Kinase selectivity panel; assay type: biochemical; conditions: [ATP] = 1 mM
Chain of AXL (P30530 26-894): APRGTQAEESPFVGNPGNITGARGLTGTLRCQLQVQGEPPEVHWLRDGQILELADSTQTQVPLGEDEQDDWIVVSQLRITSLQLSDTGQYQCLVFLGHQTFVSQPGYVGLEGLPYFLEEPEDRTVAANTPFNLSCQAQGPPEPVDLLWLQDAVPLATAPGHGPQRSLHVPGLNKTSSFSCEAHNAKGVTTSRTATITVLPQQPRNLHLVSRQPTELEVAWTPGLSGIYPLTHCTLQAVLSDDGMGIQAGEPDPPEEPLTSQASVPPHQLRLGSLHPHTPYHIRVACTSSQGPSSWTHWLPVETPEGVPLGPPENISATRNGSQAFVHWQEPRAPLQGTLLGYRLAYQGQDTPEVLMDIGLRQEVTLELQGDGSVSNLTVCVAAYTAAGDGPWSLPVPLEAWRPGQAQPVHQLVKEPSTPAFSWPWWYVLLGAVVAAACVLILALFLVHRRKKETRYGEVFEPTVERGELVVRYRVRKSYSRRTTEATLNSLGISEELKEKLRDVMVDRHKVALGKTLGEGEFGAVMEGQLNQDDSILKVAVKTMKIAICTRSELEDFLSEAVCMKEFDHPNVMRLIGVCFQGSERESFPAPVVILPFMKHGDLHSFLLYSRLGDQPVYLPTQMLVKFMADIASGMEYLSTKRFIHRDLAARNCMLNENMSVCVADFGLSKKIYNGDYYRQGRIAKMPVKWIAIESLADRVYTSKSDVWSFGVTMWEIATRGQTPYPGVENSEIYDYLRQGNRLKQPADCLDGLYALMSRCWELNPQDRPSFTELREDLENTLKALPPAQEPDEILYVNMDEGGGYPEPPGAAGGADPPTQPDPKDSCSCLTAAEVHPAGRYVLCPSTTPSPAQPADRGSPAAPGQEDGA

[4] = biological target: BRAF (Homo sapiens, UniProt P15056); assay: Kinase selectivity panel; assay type: biochemical; conditions: [ATP] = 1 mM
Chain of BRAF (P15056 whole entry): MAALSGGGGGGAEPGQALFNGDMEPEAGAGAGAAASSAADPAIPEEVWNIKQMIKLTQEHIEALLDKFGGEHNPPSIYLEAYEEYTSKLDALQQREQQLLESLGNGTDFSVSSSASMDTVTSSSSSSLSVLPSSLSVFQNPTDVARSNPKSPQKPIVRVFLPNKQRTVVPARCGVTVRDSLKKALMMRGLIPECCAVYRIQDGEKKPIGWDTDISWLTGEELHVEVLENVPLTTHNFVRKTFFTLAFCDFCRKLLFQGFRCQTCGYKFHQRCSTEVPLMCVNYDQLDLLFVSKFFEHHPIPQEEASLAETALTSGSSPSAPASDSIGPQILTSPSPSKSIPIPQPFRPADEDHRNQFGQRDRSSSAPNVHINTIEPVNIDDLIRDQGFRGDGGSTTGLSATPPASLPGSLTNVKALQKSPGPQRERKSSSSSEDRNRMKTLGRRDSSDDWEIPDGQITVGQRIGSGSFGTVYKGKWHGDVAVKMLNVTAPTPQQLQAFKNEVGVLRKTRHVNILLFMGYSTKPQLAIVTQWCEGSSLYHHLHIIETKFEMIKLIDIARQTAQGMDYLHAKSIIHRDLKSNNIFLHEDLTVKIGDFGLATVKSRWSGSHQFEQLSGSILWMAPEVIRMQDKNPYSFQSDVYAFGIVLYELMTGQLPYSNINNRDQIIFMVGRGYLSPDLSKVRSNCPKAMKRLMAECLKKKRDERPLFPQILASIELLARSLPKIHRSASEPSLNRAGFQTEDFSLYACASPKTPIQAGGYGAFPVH

[5] = biological target: LRRK2 (Homo sapiens, UniProt Q5S007); assay: Kinase selectivity panel; assay type: biochemical; conditions: [ATP] = 1 mM
Chain of LRRK2 (Q5S007 whole entry): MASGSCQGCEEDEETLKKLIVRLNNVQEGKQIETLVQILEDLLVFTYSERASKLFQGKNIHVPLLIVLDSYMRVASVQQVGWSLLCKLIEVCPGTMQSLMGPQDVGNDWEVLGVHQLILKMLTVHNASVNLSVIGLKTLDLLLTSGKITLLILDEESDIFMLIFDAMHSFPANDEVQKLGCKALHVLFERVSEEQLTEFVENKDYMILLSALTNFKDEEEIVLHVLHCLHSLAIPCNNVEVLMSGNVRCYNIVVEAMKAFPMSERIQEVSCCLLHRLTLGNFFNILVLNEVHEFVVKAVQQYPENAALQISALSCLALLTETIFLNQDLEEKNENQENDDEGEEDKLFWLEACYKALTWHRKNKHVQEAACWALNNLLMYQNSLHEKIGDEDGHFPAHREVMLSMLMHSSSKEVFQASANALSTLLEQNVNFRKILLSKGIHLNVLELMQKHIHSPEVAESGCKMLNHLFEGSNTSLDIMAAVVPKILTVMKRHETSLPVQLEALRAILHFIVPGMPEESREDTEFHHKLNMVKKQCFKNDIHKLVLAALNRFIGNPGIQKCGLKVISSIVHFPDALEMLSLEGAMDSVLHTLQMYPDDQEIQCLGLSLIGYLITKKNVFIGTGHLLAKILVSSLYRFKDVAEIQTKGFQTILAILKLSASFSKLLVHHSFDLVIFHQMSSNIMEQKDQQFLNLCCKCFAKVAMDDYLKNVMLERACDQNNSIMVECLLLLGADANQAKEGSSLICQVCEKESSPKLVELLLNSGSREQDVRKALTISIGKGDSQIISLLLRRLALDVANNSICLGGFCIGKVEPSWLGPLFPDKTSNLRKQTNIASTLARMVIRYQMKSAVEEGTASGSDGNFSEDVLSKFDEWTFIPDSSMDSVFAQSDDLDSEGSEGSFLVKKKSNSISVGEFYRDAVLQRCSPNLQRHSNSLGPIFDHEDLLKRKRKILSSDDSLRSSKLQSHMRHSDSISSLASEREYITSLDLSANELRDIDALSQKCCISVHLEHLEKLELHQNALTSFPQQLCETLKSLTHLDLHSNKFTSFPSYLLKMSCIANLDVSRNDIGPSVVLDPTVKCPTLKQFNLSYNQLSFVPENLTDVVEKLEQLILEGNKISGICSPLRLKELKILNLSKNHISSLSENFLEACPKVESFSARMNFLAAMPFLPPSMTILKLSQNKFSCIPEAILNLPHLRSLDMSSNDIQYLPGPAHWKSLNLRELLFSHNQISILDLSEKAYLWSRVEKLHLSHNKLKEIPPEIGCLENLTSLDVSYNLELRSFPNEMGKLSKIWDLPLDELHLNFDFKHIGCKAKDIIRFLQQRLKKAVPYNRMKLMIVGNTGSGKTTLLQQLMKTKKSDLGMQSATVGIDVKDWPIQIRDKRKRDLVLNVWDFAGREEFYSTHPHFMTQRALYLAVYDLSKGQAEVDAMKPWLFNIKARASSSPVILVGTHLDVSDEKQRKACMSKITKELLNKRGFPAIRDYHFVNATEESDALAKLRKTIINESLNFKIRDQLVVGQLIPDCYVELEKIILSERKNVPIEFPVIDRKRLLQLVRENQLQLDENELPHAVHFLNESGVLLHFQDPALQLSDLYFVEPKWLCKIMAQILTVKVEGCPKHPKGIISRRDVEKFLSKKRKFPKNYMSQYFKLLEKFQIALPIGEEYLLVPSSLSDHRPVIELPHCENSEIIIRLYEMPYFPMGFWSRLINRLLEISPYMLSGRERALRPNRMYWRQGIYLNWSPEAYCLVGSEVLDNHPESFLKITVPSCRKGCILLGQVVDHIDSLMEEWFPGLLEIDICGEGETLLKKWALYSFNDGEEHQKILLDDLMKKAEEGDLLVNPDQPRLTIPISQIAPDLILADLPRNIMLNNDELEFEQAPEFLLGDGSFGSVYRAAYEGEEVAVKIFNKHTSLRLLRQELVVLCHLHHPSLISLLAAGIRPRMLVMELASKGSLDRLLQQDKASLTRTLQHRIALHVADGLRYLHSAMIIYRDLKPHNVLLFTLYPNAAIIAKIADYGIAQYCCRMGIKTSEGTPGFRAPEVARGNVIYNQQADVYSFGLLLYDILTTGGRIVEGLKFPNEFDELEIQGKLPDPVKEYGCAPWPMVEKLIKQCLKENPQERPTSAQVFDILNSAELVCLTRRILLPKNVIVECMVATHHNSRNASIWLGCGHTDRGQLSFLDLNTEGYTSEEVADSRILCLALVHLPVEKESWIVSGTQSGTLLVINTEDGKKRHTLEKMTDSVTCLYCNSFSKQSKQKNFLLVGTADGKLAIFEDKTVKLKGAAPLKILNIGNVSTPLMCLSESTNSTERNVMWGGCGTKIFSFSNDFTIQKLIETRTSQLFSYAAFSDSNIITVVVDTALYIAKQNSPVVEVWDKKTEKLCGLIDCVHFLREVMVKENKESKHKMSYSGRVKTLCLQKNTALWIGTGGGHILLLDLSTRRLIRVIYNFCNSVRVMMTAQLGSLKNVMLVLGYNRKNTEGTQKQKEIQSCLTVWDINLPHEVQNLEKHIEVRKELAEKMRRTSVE

[6] = biological target: PAK4 (Homo sapiens, UniProt O96013); assay: Kinase selectivity panel; assay type: biochemical; conditions: [ATP] = 1 mM
Chain of PAK4 (O96013 whole entry): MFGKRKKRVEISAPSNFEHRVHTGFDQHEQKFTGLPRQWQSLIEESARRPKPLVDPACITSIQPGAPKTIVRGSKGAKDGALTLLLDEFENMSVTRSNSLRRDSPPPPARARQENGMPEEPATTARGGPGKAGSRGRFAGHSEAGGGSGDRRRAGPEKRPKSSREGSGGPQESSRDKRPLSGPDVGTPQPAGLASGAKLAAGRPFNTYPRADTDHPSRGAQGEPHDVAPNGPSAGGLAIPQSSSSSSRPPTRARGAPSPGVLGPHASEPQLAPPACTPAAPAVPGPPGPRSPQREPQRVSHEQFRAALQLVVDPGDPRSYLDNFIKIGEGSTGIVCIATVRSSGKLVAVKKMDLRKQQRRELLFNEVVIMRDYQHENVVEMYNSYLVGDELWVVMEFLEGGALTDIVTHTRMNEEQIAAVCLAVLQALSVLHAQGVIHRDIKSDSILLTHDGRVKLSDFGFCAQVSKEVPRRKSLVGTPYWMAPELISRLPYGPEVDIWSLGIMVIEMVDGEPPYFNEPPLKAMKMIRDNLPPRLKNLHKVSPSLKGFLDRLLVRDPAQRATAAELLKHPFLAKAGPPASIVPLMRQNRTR

[7] = biological target: TGFBR1 (Homo sapiens, UniProt P36897); assay: Kinase selectivity panel; assay type: biochemical; conditions: [ATP] = 1 mM
[8] = biological target: Per-Arnt-Sim (PAS) kinase (Homo sapiens, UniProt Q96RG2); assay: PAS kinase activity, further evaluation; assay type: biochemical
[9] = test system: phosphorylation of BAD in KMS-12-BM cells; assay: pBAD S112 ELISA in cells; assay type: cell-based; conditions: Homo sapiens, 2.5 hours, RPMI + 10% FBS, read-out: mean (± SD) IC50, pBAD inhibition
Procedure: (§1) The effect of INCB053914 on the level of pBAD was further investigated in KMS-12-BM and MOLM-16 cells, which were suspended in RPMI + 10% fetal bovine serum (FBS) and seeded into 96-well v-bottom polypropylene plates (Greiner, Munroe, North Carolina; 4 × 10^5 cells/well/100 μl) in the presence of 5 μl INCB053914 at a final concentration range of 0.1 nM to 1,000 nM. After 2.5 hours at 37°C and 5% CO2, the cells were lysed in 100 μl of cell extraction buffer (Cell Signaling Technology) containing phenylmethane sulfonyl fluoride, Halt^TM phosphatase, and protease inhibitors (Thermo Fisher Scientific, Waltham, Massachusetts; Calbiochem). The concentration of pBAD protein in the cell lysates was quantified using a Human pBAD S112 ELISA Kit (Cell Signaling Technology).

[10] = test system: phosphorylation of BAD in MOLM-16 cells; assay: pBAD S112 ELISA in cells; assay type: cell-based; conditions: Homo sapiens, MOLM16, 2.5 hours, RPMI + 10% FBS, read-out: mean (± SD) IC50, pBAD inhibition
Procedure: as §1

[11] = test system: BAD phosphorylation in KMS-12-BM tumors; assay: Intratumoral pBAD inhibition in xenograft-bearing mice; assay type: in vivo; conditions: Mus musculus, single oral dose, 4 hours post dose, read-out: IC50, inhibition of BAD phosphorylation relative to vehicle in tumors
Procedure: (§2) Human MOLM-16 (AML) and KMS-12-BM (MM) xenografts were established in SCID mice. For the evaluation of intratumoral pBAD inhibition, tumor-bearing mice (three to eight mice/group) were treated with a single oral dose of INCB053914 at doses ranging from 0 (vehicle) to 100 mg/kg. In one representative experiment, mice were sacrificed 4 hours after a single dose, and tumors were collected to analyze the levels of pBAD relative to those of vehicle-administered controls. Plasma samples were collected for pharmacokinetic analysis.

[12] = test system: BAD phosphorylation in MOLM-16 tumors; assay: as above; assay type: in vivo; conditions: Mus musculus, MOLM16, single oral dose, 4 hours post dose, read-out: IC50, inhibition of BAD phosphorylation relative to vehicle in tumors
Procedure: as §2

[13] = Tolerability in tumor-bearing SCID mice; assay type: in vivo; conditions: MOLM-16 and KMS-12-BM tumor-bearing mice, oral twice a day up to 100 mg/kg
Procedure: Non- GLP studies intended to characterize the pharmacology of INCB053914 were conducted in accordance with Incyte Corporation's Animal Use Protocols and DuPont Stine-Haskell SOPs. Animals were housed in barrier facilities fully accredited by the Association for Assessment and Accreditation of Laboratory Animal Care, International. All of the procedures were conducted under the supervision of a veterinarian and in accordance with the U.S. Public Health Service Policy on Humane Care and Use of Laboratory Animals. […] Analgesics and anesthetics could be used to minimize animal suffering and distress; neither were required during these studies. Animals on study were monitored twice daily and there were no unexpected deaths.
For the evaluation of the effects of INCB053914 on tumor growth, tumor-bearing mice (MOLM-16 xenograft, eight mice/group; KMS-12-BM xenograft, nine mice/group) were dosed orally twice a day with INCB053914 at doses ranging from 0 (vehicle) to 100 mg/kg for 15 days.

[14] = test system: Pfeiffer DLBCL cells; assay: In vitro proliferation of Pfeiffer DLBCL cells, single agents and combination; assay type: cell-based
Procedure: Synergistic effects of INCB053914 in combination with INCB050465, cytarabine, or itacitinib, were assessed based on the Bliss independence model. In this model, the expected additive effect, with the assumption that concentration dependent effects of 2 drugs (A and B) are independent, is given by the equation EIND = EA + EB – EA •EB, where 0 ≤ EIND ≤ 1; EA and EB are the magnitudes of effects of A and B alone at given concentrations.
The interaction between effects of A and B can be described by the equation Combination Index = EIND/ EOBS, where EOBS is the observed combined effect of A + B expressed as a probability (0 ≤ EOBS ≤ 1). If the point estimate of Combination Index and its upper 97.5% confidence limit are <1 then the combined effect is synergistic; if the 2-sided 95% confidence intervals (CI) encompass 1 then the combined effect is additive (ie, independent); if the point estimate of Combination Index and the lower 2.5% confidence limit are >1 then the combined effect of A + B are antagonistic.

[15] = test system: human KG-1 AML xenografts; assay: Tumor growth in KG-1 (AML) xenograft, combination with cytarabine; assay type: in vivo, mouse; conditions: KG-1 (AML) tumors
Procedure: Female immune compromised (severe combined immunodeficiency [SCID]) mice (5–9 weeks of age; Charles River Laboratories, Wilmington, Massachusetts) were inoculated with MOLM-16, KG-1, or KMS-12-BM cells. A cell suspension in Dulbecco’s phosphate-buffered saline (DPBS) (1 × 10^8 cells/ml) was mixed 1:1 (v/v) with matrigel, and 200 μl was injected subcutaneously into the flank of each mouse. […] The treatment of tumor-bearing mice started 7 to 24 days after tumor inoculation for efficacy studies and approximately 14 to 27 days after tumor inoculation for pharmacodynamic studies.
Synergistic effects of INCB053914 in combination with INCB050465, cytarabine, or itacitinib, were assessed based on the Bliss independence model [56, 57]. In this model, the expected additive effect, with the assumption that concentration dependent effects of 2 drugs (A and B) are independent, is given by the equation EIND = EA + EB – EA •EB, where 0 ≤ EIND ≤ 1; EA and EB are the magnitudes of effects of A and B alone at given concentrations.
The interaction between effects of A and B can be described by the equation Combination Index = EIND/ EOBS, where EOBS is the observed combined effect of A + B expressed as a probability (0 ≤ EOBS ≤ 1). […]

Chain of PIM2 (Q9P1W9 whole entry): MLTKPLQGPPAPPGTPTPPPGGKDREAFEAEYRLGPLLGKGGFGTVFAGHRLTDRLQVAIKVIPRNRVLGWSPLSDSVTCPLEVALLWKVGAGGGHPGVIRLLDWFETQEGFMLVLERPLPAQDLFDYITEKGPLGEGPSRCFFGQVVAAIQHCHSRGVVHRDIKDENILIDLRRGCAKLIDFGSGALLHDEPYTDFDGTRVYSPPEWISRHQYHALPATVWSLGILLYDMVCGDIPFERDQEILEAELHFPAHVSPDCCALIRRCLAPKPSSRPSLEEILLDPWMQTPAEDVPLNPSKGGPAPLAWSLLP

C[C@H]1CN(c2c(NC(=O)c3ccc(F)c(-c4c(F)cccc4F)n3)cnc3c2CC[C@H]3O)C[C@@H](N)[C@@H]1O.O=P(O)(O)O [INCB053914, N-((R)-4-((3R,4R,5S)-3-amino-4-hydroxy-5-methylpiperidin-1-yl)-7-hydroxy-6,7-dihydro-5H-cyclopenta[b]pyridin-3-yl)-6-(2,6-difluorophenyl)-5-fluoropicolinamide phosphate]
IC50 [1]: 30 nM
IC50 [2]: > 20000 nM
IC50 [3]: > 20000 nM
IC50 [4]: > 20000 nM
IC50 [5]: > 20000 nM
IC50 [6]: > 20000 nM
IC50 [7]: > 20000 nM
effect on PAS kinase activity relative to PIM2 [8]: approximately equipotent effects on PIM2 and PAS kinase activities
IC50 [9]: 27 nM
IC50 [10]: 4 nM
IC50 [11]: 145 nM
IC50 [12]: 70 nM
tolerability [13]: tolerated at all doses tested
proliferation of Pfeiffer cells, single agent [14]: inhibited
tumor growth, single agent [15]: inhibited
